Reference: publication PMC4132908, “Genome-wide annotation and functional identification of aphid GLUT-like sugar transporters” (BMC Genomics, 2014)

Biological target: T1, ApST4 (A. pisum sugar transporter 4) (Acyrthosiphon pisum, UniProt A0A8R2H6Y5)
T1 sequence (A0A8R2H6Y5 64-552): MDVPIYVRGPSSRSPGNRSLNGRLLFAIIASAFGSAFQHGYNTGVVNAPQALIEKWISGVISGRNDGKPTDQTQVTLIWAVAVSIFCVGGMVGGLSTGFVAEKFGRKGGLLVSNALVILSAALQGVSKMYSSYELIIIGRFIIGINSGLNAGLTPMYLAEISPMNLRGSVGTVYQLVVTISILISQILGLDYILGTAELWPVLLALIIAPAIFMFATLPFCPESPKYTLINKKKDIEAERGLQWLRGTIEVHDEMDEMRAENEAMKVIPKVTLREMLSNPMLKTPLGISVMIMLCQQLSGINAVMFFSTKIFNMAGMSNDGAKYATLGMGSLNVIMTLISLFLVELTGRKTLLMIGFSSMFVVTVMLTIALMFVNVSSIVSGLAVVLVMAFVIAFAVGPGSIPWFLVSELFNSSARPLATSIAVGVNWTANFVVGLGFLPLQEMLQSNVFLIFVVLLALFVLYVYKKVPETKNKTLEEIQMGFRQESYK
Test: competition with […]-fructose uptake in whole yeast cells
Type: cell-based
Conditions: 50 mM 14C-fructose; 100 mM unlabelled competitor; pH 7.0; 30 °C; 10 min

OC[C@H]1OC(O)[C@H](O)[C@@H](O)[C@H]1O (some centres unmarked) [galactose]
% reduction of 14C-fructose uptake at 100 mM: ~ 21%

OC[C@H]1OC(O)[C@@H](O)[C@@H](O)[C@@H]1O (some centres unmarked) [mannose]
% reduction of 14C-fructose uptake at 100 mM: > 50%
